Measured values from patent EP0973766B1, “QUINOXALINEDIONES” (Pfizer Limited, priority 1997, dated 1998).

Assay: Lipophilicity by the octanol/water partition method

## COCc1nnc(-c2ccc[n+]([O-])c2)n1-c1c(Cl)c(Cl)cc2[nH]c(=O)c(=O)[nH]c12 [Example 2, (-)-6,7-Dichloro-5-[3-methoxymethyl-5-(1-oxidopyridin-3-yl)-4H-1,2,4-triazol-4-yl]-2,3(1H,4H)-quinoxalinedione hydrate]
  logD: -1.7
